We go through eight compounds from ChEMBL document CHEMBL1147084, “From the Cover: Antipsychotic drug-induced weight gain mediated by histamine H1 receptor-linked activation of hypothalamic AMP-kinase” (Proc Natl Acad Sci U S A, 2007).

The test system of one experiment is Hypothalamus. Put plainly: Increase in phospho-AMPK levels in H1RKO mouse hyphalamic slices at 500 nM after 30 mins by Western blotting. Type of experiment: functional, tissue-based. In general terms: A western blot detects proteins with antibodies after separation by electrophoresis.
The species entered for experiment [1] is Mus musculus. Briefly: Orexigenic activity in H1RKO mouse. It counts as functional, organism-based.
Experiment [2] concerns the target T1, Leptin receptor (Homo sapiens) (UniProt P48357).
T1 sequence (whole entry): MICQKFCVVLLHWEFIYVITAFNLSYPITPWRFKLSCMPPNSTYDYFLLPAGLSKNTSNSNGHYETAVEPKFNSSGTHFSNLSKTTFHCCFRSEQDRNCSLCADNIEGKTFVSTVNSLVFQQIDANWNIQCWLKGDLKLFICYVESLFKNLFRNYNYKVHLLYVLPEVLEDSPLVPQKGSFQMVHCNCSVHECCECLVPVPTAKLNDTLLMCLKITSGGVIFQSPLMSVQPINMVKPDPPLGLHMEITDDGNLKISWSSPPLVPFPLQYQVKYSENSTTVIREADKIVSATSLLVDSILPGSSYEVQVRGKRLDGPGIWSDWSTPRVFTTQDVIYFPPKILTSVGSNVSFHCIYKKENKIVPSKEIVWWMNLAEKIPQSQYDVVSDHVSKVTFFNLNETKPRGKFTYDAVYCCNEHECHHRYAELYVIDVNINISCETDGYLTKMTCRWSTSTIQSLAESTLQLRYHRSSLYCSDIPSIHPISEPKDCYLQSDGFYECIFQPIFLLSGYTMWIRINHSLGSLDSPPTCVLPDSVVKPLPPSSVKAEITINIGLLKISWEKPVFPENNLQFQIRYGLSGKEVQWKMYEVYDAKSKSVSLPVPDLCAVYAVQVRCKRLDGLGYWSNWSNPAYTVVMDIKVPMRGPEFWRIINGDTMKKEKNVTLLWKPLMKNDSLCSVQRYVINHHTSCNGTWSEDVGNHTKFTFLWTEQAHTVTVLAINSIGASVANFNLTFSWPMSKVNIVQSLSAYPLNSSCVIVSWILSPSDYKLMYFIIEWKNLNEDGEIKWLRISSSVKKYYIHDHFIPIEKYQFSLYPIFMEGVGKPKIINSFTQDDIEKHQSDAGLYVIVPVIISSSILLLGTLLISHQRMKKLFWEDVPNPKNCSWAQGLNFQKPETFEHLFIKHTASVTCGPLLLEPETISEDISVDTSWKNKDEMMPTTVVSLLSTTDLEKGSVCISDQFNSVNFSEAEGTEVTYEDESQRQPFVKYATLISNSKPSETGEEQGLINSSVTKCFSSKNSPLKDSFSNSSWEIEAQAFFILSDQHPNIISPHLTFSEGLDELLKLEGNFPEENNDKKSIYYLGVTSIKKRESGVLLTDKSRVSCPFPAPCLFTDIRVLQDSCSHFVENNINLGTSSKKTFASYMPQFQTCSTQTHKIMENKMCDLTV
Briefly: Binding affinity to leptin receptor at 10 nM.

Experiment [3] concerns the target T1, Leptin receptor (Homo sapiens). Put plainly: Binding affinity to leptin receptor at 100 nM.
Experiment [4] can be described thus: Binding affinity to alphaMSH receptor at 10 nM.
A short description of experiment [5]: Binding affinity to alphaMSH receptor at 100 nM.
For experiment [6], the target named is T2, Neuropeptide Y receptor type 1 (Homo sapiens) (UniProt P25929).
T2 sequence (whole entry): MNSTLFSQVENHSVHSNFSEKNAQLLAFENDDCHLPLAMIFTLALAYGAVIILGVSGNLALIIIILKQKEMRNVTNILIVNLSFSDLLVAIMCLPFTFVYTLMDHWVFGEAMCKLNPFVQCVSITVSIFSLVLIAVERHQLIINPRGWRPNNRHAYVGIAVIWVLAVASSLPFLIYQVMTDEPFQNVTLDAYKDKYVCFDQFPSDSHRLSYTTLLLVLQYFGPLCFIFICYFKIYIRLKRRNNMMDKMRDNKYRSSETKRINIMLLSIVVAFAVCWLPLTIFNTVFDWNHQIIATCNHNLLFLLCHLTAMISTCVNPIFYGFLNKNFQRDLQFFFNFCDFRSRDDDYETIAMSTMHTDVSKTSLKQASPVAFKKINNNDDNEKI
Briefly: Binding affinity to neuropeptide Y receptor at 10 nM.

Experiment [7] deals with T2, Neuropeptide Y receptor type 1 (Homo sapiens). Briefly: Binding affinity to neuropeptide Y receptor at 100 nM.
Experiment [8] deals with Mus musculus. Put plainly: Increase in phospho-AMPK levels in intact H1RKO mouse hypothalamus at 3 mg/kg, ip after 3 hrs by Western blotting. It counts as functional, organism-based. Details: dose 3 mg/kg.
Experiment [9] has as its system Mus musculus. Put plainly: Increase in phospho-AMPK level in paraventricular hyphalamic nuclei intact H1RKO mouse at 3 mg/kg, ip after 3 hrs by immunohistochemistry. Type of experiment: functional, organism-based. Details: dose 3 mg/kg.
A further experiment has as its target Histamine H1 receptor (Rattus norvegicus, UniProt P31390). Briefly: biochemical.
Experiment [10] deals with Mus musculus. Put plainly: Increase in alpha-2AMPK levels in intact H1RKO mouse cerebellum at 1 mg/kg after 3 hrs. It counts as functional, organism-based. Details: dose 1 mg/kg.
The species named for experiment [11] is Mus musculus. Put plainly: Reversal of leptin-induced reduction in hyphalamic phospho-AMPK level in H1RKO mouse at 50 nM after 30 mins by Western blotting. It counts as functional, organism-based.
The species named for experiment [12] is Mus musculus. Put plainly: Reversal of insulin-induced reduction in hyphalamic phospho-AMPK level in H1RKO mouse at 50 nM after 30 mins by Western blotting. Type of experiment: functional, organism-based.
Experiment [13] is filed under the species Mus musculus. Briefly: Reversal of histamine-induced reduction in hyphalamic phospho-AMPK level in H1RKO mouse at 200 nM after 30 mins by Western blotting. Type of experiment: functional, organism-based.
The subject of experiment [14] is Mus musculus. Put plainly: Increase in phospho-AMPK in H1R knockout mouse at 3 mg/kg by immunohistochemistry. It counts as functional, organism-based. Details: dose 3 mg/kg.
The subject of experiment [15] is Mus musculus. Briefly: Increase in alpha-2AMPK levels in intact H1RKO mouse cerebral cortex at 1 mg/kg after 3 hrs. Type of experiment: functional, organism-based. Further details: dose 1 mg/kg.
For experiment [16], the system named is Mus musculus. Put plainly: Increase in phospho-AMPK level in arcuate hyphalamic nuclei intact H1RKO mouse at 1 mg/kg after 3 hrs by immunohistochemistry. It counts as functional, organism-based. Further details: dose 1 mg/kg.
For experiment [17], the system named is Mus musculus. Briefly: Increase in phospho-AMPK level in arcuate hyphalamic nuclei intact H1RKO mouse at 5 mg/kg after 3 hrs by immunohistochemistry. It counts as functional, organism-based. Details: dose 5 mg/kg.
The subject of experiment [18] is Mus musculus. Put plainly: Increase in phospho-AMPK levels in intact H1RKO mouse hypothalamus at 1 mg/kg after 3 hrs. Type of experiment: functional, organism-based. Details: dose 1 mg/kg.
In experiment [19] the test system is Mus musculus. Briefly: Increase in alpha-2AMPK levels in intact H1RKO mouse hypothalamus at 1 mg/kg after 3 hrs. Type of experiment: functional, organism-based. Details: dose 1 mg/kg.
Experiment [20] has as its system Mus musculus. Briefly: Increase in phospho-AMPK levels in intact H1RKO mouse cerebellum at 1 mg/kg, ip after 3 hrs by Western blotting. Type of experiment: functional, organism-based. Further details: dose 1 mg/kg.
The test system of experiment [21] is Mus musculus. Put plainly: Increase in phospho-AMPK levels in intact H1RKO mouse liver at 1 mg/kg, ip after 3 hrs by Western blotting. It counts as functional, organism-based. Details: dose 1 mg/kg.
The subject of experiment [22] is Mus musculus. Put plainly: Increase in cortical alpha-2AMPK levels in intact H1RKO mouse at 5 mg/kg after 3 hrs. It counts as functional.
The subject of experiment [23] is Mus musculus. Briefly: Increase in alpha-2AMPK levels in intact H1RKO mouse cerebellum at 5 mg/kg after 3 hrs. Further details: dose 5 mg/kg. It counts as functional, organism-based.
Experiment [24] has as its system Mus musculus. Briefly: Reversal of leptin-induced reduction in hyphalamic phospho-AMPK in H1RKO mouse at 5 mg/kg after 3 hrs by Western blotting. Type of experiment: functional, organism-based. Details: dose 5 mg/kg.
Experiment [25] relates to Mus musculus. Briefly: Reversal of leptin-induced reduction in hyphalamic alpha-2AMPK activity in H1RKO mouse at 5 mg/kg. Type of experiment: functional, organism-based. Details: dose 5 mg/kg.
In experiment [26] the test system is Mus musculus. Put plainly: Increase in phospho-AMPK level in paraventricular hyphalamic nuclei intact H1RKO mouse at 1 mg/kg after 3 hrs by immunohistochemistry. Type of experiment: functional, organism-based. Details: dose 1 mg/kg.
Experiment [27] concerns Mus musculus. Briefly: Increase in phospho-AMPK level in paraventricular hyphalamic nuclei intact H1RKO mouse at 5 mg/kg after 3 hrs by immunohistochemistry. It counts as functional, organism-based. Details: dose 5 mg/kg.

Active and inactive are the calls of the source. No cut-off for these calls is given here. Some results are limits rather than exact numbers.

Chain of Histamine H1 receptor (P31390 whole entry): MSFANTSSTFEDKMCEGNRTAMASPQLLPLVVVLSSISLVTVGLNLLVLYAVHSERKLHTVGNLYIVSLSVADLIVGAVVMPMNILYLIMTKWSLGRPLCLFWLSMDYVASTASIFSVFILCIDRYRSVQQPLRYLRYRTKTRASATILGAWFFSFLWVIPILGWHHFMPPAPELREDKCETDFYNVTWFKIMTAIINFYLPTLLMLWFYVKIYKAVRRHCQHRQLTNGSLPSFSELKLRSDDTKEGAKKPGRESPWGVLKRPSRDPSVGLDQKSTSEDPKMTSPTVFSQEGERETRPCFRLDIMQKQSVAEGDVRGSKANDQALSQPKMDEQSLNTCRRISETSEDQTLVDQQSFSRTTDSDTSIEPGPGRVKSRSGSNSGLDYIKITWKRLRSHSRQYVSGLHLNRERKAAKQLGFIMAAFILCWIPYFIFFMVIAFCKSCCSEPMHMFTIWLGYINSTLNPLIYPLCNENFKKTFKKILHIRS
Description for Histamine H1 receptor: Displacement of [3H]mepyramine from H1R in rat brain

In the case of `Cc1cc2c(s1)Nc1ccccc1N=C2N1CCN(C)CC1`, the outcome in the experiment on Hypothalamus and in the experiment filed under Mus musculus [1] was Active. For the same compound, the result in experiment [2], in experiment [3], in experiment [4], in experiment [5], in experiment [6] and in experiment [7] was inactive.

On to `Cc1ccc(/C(=C\CN2CCCC2)c2ccccn2)cc1`, for which the outcome with Mus musculus [8] and in the experiment on Hypothalamus was Active.

For `Cc1nc2n(c(=O)c1CCN1CCC(c3noc4cc(F)ccc34)CC1)CCCC2`, the outcome in the experiment on Hypothalamus was inactive.

For the compound `O=C(CCCN1CCC(O)(c2ccc(Cl)cc2)CC1)c1ccc(F)cc1`, the result with Hypothalamus and in the experiment listed under Mus musculus [1] was inactive.

Consider `O=C1Cc2cc(CCN3CCN(c4nsc5ccccc45)CC3)c(Cl)cc2N1`, for which the outcome in the experiment on Hypothalamus, in the experiment filed under Mus musculus [1] and in the experiment with Mus musculus [9] was inactive.

For the compound `OCCOCCN1CCN(C2=Nc3ccccc3Sc3ccccc32)CC1`, the outcome in the experiment with Hypothalamus and in the experiment filed under Mus musculus [1] was Active.

Turning to `O=C1CCc2ccc(OCCCCN3CCN(c4cccc(Cl)c4Cl)CC3)cc2N1` [ARIPIPRAZOLE], the outcome in the experiment with Hypothalamus and in the experiment filed under Mus musculus [1] was inactive. On Histamine H1 receptor, the IC50 is > 3 µM.

Consider `CN1CCN(C2=Nc3cc(Cl)ccc3Nc3ccccc32)CC1` [CLOZAPINE], for which the result with Mus musculus [10], in the experiment with Mus musculus [14], in the experiment with Mus musculus [15], with Mus musculus [20], with Mus musculus [21] and with Mus musculus [23] was inactive. For the same compound, the outcome in experiment [2], in experiment [3], in experiment [4], in experiment [5], in experiment [6] and in experiment [7] was inactive. The result in the experiment listed under Mus musculus [11], in the experiment filed under Mus musculus [12], in the experiment listed under Mus musculus [13], with Mus musculus [16], with Mus musculus [17] and in the experiment on Hypothalamus was Active. In addition, the result in the experiment listed under Mus musculus [1], with Mus musculus [18], in the experiment with Mus musculus [19], in the experiment with Mus musculus [24], with Mus musculus [25] and in the experiment with Mus musculus [26] was Active. In addition, the result in the experiment on Mus musculus [27] was Active. In the experiment with Mus musculus [22], the Activity turned out to be 20%.

The IC50 is the point on the concentration scale where inhibition reaches its midpoint. Read a low IC50 as greater potency.
